Test results published in patent publication US10874600B2, “Method for degrading bilirubin in skin” (The Procter & Gamble Company, priority 2018, dated 2020).

Experiment: Bilirubin degradation assay
Format: biochemical
Settings: for Avg. IB at pH 3.8 / Avg. IB at pH 7.4: 25 μg/mL IB, 24-hr incubation at room temperature, average of triplicate; for Δ IB (actual): pH 3.8 vs reference value (pH 7.4, 0% niacinamide leg); for Δ IB (predicted): predicted additive effect of niacinamide at pH 7.4 plus observed pH effect 2.323
Procedure: The bilirubin degradation assay provides an in vitro method of determining how a material or composition affects bilirubin degradation. Three replicates of each test sample are prepared in a 96-well plate (e.g., a FALCON brand 96-well tissue culture plate or equivalent) at a total volume of 250 μl/well. A stock of 250 ug/ml indirect bilirubin (i.e., the unconjugated form of bilirubin most commonly found in blood serum) is made by dissolving bilirubin powder (Cayman Chemicals Company, Catalog #17161) in DMSO (Sigma, Catalog # D8414-100 ml) to yield a stock solution at 10× working concentration. Working concentration of bilirubin is set at 25 ug/ml for every well except negative/vehicle control wells. […] The positive control wells may be prepared by mixing 25 ul of 250 ug/ml bilirubin stock solution and 225 ul PBS (AccuGENE, Catalog #51225). For negative/vehicle control wells, 25 ul DMSO is used in place of bilirubin. Test sample wells contain 25 ul of 250 ug/ml bilirubin stock solution, 200 ul PBS and 25 ul of each treatment solution made as 10× concentrate stock, e.g., for 0.1% Niacinamide treatment, a 10× concentrate stock is made at 1%.
The pH of each sample is adjusted using 1M HCl pH titration is performed separately before the experiment set up to determine how much 1M HCl is needed for each leg to achieve targeting pH level. 1500 ul of a master working solution of each testing leg was made without bilirubin to accommodate threshold volume need for pH adjustment. The master solution for the vehicle control wells contain 150 ul DMSO and 1350 ul of a mixture of 1M HCl and PBS. […] Bilirubin is unstable when exposed to ambient light. Thus, for bilirubin positive control well pre-titration, DMSO was used as surrogate for bilirubin. […] For pre-titration test sample wells, 1500 ul of master solution is made by mixing 150 ul DMSO (surrogate for bilirubin stock), 150 ul 10× treatment stock, and a 1200 ul mixture of 1M HCl and PBS. For actual experimental set up, make: 1350 ul pre-mix in triplicate for each leg, less either DMSO (for vehicle control leg) or bilirubin (for positive control and treatment legs) but with matching volume of all other ingredients as determined by pre-titration. Then for vehicle control leg, add 25 ul DMSO per well followed by adding in 225 ul of the pre-mix. For all other legs, add 25 ul of 250 ug/ml bilirubin stock made in DMSO per well followed by adding in 225 ul of corresponding pre-mix. […] The plate(s) containing the test samples are covered with aluminum foil and placed on top of a microplate shaker (VWR, Catalog #12620-938). Incubation was carried out at room temperature for 24-hr with constant shaking at 150 rpm. […] Commercially available bilirubin quantification kit (Cell Biolab, Catalog # MET-5010) was used for bilirubin quantification. The assay is based on the Jendrassik-Grof method in which diazotized sulfanilic acid reacts with bilirubin to form azobilirubin, the latter of which can be detected at an OD of 540 nm. A standard bilirubin curve is generated using the same bilirubin used for treatment and quantified.
Bilirubin concentrations of all testing legs are calculated using linear regression against the standard bilirubin curve. Resulting bilirubin concentrations are compared to neutral pH bilirubin reference leg. The difference in bilirubin quantification (A bilirubin) between the neutral-pH bilirubin reference leg and the low-pH niacinamide treated legs can be analyzed for predicted effect and actual effect.
The effect of niacinamide level on bilirubin degradation was tested at 0.1%, 0.5%, and 3%, by weight, based on the volume of the composition (w/v). A vehicle control is used in this Example as the negative control.

NC(=O)c1cccnc1 [niacinamide]
Avg. IB at pH 3.8 (0.1% (w/v) niacinamide): 17.713 μg/mL | Avg. IB at pH 7.4 (0.1% (w/v) niacinamide): 20.851 μg/mL | Δ IB (actual) (0.1% (w/v) niacinamide): 3.405 | Δ IB (predicted) (0.1% (w/v) niacinamide): 2.590 | Avg. IB at pH 3.8 (0.5% (w/v) niacinamide): 14.231 μg/mL | Avg. IB at pH 7.4 (0.5% (w/v) niacinamide): 20.185 μg/mL | Δ IB (actual) (0.5% (w/v) niacinamide): 6.887 | Δ IB (predicted) (0.5% (w/v) niacinamide): 3.256 | Avg. IB at pH 3.8 (3% (w/v) niacinamide): 9.585 μg/mL | Avg. IB at pH 7.4 (3% (w/v) niacinamide): 17.087 μg/mL | Δ IB (actual) (3% (w/v) niacinamide): 11.533 | Δ IB (predicted) (3% (w/v) niacinamide): 6.354 | reduction in bilirubin in the low-pH composition compared with predicted (niacinamide in low-pH composition vs observed individual effects of pH and niacinamide level): much higher level than predicted
